Results on 24 compounds are retold here after US8541418B2, “Inhibitors of polo-like kinase” (Elan Pharmaceutical, Inc., priority 2009, dated 2013).

Bounds are passed on as bounds.

What all share (format): biochemical
For one assay, the target named is PLK3 (Homo sapiens, UniProt Q9H4B4). Briefly: PLK TR-FRET peptide assay, PLK3. The following applies: GST-PLK3, 15 min reaction, read-out: Plk3 IC50. (Time-resolved FRET reads energy transfer from a long-lived donor to a nearby acceptor.)
In a further assay the target is PLK1 (Homo sapiens, UniProt P53350). The assay can be described thus: PLK TR-FRET peptide assay, PLK1. The note with it: GST-PLK1, 60 min reaction.
A further assay concerns the target PLK2 (Homo sapiens, UniProt Q9NYY3). The assay can be described thus: PLK TR-FRET peptide assay, PLK2. The note with it: for IC50: PLK TR-FRET peptide assay, GST-PLK2, 60 min reaction, read-out: Plk2 IC50; for relative PLK2 activity of the enantiomers: compared with the opposite enantiomer.

Chain of PLK1 (P53350 whole entry): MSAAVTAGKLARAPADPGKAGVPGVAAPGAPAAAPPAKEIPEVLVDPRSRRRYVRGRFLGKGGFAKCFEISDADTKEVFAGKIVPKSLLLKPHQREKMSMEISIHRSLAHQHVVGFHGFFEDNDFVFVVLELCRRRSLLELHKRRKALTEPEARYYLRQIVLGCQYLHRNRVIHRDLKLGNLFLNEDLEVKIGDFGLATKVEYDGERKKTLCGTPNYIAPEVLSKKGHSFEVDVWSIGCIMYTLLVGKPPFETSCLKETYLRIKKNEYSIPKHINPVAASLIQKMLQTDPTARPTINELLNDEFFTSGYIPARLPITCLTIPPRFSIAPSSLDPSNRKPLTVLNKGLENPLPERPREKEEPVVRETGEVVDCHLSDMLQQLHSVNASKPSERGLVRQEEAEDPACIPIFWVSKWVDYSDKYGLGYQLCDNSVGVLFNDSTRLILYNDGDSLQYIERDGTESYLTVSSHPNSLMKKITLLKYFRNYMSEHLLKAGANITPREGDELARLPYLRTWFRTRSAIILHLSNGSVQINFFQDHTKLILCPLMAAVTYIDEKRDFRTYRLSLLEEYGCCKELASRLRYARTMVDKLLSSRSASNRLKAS
Chain of PLK2 (Q9NYY3 whole entry): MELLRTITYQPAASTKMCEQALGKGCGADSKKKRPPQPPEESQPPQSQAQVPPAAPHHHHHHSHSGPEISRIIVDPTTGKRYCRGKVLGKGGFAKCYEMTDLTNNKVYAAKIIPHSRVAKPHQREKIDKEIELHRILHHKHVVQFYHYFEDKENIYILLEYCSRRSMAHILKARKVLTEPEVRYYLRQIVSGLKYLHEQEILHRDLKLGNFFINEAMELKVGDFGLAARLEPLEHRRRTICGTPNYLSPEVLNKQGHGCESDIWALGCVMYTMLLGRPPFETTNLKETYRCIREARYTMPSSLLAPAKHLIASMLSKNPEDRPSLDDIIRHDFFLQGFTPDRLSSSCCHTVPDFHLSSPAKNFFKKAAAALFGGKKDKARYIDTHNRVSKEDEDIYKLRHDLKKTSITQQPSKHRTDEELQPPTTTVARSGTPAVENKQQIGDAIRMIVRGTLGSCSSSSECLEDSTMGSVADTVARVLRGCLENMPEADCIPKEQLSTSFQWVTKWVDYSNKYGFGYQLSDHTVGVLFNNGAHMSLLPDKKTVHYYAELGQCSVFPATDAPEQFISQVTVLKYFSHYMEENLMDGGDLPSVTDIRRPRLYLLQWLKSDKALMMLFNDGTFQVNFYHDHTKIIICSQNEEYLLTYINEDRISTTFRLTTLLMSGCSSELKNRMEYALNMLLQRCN
Chain of PLK3 (Q9H4B4 whole entry): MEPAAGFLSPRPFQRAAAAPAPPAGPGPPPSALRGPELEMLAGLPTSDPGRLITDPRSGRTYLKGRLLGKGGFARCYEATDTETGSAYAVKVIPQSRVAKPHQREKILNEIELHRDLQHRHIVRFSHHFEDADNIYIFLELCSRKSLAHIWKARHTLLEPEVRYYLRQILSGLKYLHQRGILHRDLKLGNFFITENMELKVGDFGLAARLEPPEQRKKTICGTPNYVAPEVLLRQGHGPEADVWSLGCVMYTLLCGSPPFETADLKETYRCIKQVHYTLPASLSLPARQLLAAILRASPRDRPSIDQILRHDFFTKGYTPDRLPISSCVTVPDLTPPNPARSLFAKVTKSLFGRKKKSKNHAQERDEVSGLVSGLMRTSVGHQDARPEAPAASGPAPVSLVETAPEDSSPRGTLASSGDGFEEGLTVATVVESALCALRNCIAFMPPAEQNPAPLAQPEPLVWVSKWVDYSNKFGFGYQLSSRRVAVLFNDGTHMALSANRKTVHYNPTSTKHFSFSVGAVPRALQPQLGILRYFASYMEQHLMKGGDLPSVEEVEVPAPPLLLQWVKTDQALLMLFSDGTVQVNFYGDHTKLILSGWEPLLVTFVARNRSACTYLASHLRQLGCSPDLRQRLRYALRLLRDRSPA

What is called IC50 is the concentration at which inhibition is half-maximal. As to `CC[C@@]12CCCCN1c1nc(-n3ccnc3-c3cc(F)c(F)c(F)c3)ncc1N(C)C2=O` [Example 266, (S)-6a-ethyl-5-methyl-2-(2-(3,4,5-trifluorophenyl)-1H-imidazol-1-yl)-7,8,9,10-tetrahydro-5H-pyrido[2,1-h]pteridin-6(6aH)-one], the IC50 is greater than 50 µM on PLK3, greater than 50 µM against PLK1 and less than 1 µM on PLK2. For the same compound, the “relative PLK2 activity of the enantiomers” value on PLK2 was “more active compound”.

As for `CC[C@@H]1C(=O)N(C)c2cnc(-c3ccncc3NC(C)=O)nc2N1C1CCCC1` [Example 115, (R)—N-(4-(8-cyclopentyl-7-ethyl-5-methyl-6-oxo-5,6,7,8-tetrahydropteridin-2-yl)pyridin-3-yl)acetamide], the IC50 at PLK3 was 10 to 50 µM; at PLK1, 1 to 10 µM; at PLK2, less than 1 µM.

As for `CCC12CCCCN1c1nc(-n3ccnc3-c3cccc(F)c3)ncc1N(C)C2=O` (racemic) [Example 239, (+/−) 6a-ethyl-2-(2-(3-fluorophenyl)-1H-imidazol-1-yl)-5-methyl-7,8,9,10-tetrahydro-5H-pyrido[2,1-h]pteridin-6(6aH)-one], the IC50 was 10 to 50 µM on PLK3, 1 to 10 µM on PLK1 and less than 1 µM at PLK2.

Regarding `CC[C@@H]1C(=O)N(C)c2cnc(-c3ccncc3CNC(=O)OC(C)(C)C)nc2N1C(C)C` [Example 107, (R)-tert-butyl (4-(7-ethyl-8-isopropyl-5-methyl-6-oxo-5,6,7,8-tetrahydropteridin-2-yl)pyridin-3-yl)methylcarbamate], the IC50 on PLK3, on PLK1 and on PLK2 was greater than 50 µM in each case.

Turning to `CC[C@@H]1C(=O)N(C)c2cnc(-n3ccnc3-c3cncc(F)c3)nc2N1C1CCCC1` [Example 99, (R)-8-cyclopentyl-7-ethyl-2-(2-(5-fluoropyridin-3-yl)-1H-imidazol-1-yl)-5-methyl-7,8-dihydropteridin-6(5H)-one], the IC50 on PLK3, against PLK1 and at PLK2 was less than 1 µM each time.

On to `CC[C@]12CCCCN1c1nc(-n3ccnc3-c3ccccc3)ncc1N(C)C2=O` [Example 263, (R)-6a-ethyl-5-methyl-2-(2-phenyl-1H-imidazol-1-yl)-7,8,9,10-tetrahydro-5H-pyrido[2,1-h]pteridin-6(6aH)-one], for which the IC50 on PLK3 is greater than 50 µM; at PLK1, greater than 50 µM; on PLK2, 10 to 50 µM.

Turning to `CN1C(=O)C2(CC(F)(F)F)CCCN2c2nc(-n3ccnc3)ncc21` (centres unmarked) [Example 329, 2-(1H-imidazol-1-yl)-5-methyl-6a-(2,2,2-trifluoroethyl)-6a,7,8,9-tetrahydropyrrolo[2,1-h]pteridin-6(5H)-one], the IC50 on PLK3, against PLK1 and on PLK2 was 10 to 50 µM throughout.

As to `CC[C@@]12CCCN1c1nc(-n3ncnc3-c3cccc4ncccc34)ncc1N(C)C2=O` [Example 219, (S)-6a-ethyl-5-methyl-2-(5-(quinolin-5-yl)-1H-1,2,4-triazol-1-yl)-6a,7,8,9-tetrahydropyrrolo[2,1-h]pteridin-6(5H)-one], the IC50 on PLK3 is greater than 50 µM; on PLK1, 10 to 50 µM; on PLK2, 1 to 10 µM.

Regarding `CC[C@@H]1C(=O)N(C)c2cnc(-c3ccncc3NC(=O)CC(C)(C)C)nc2N1C1CCCC1` [Example 108, (R)—N-(4-(8-cyclopentyl-7-ethyl-5-methyl-6-oxo-5,6,7,8-tetrahydropteridin-2-yl)pyridin-3-yl)-3,3-dimethylbutanamide], the IC50 on PLK3 is greater than 50 µM; against PLK1, 10 to 50 µM; at PLK2, 10 to 50 µM.

As for `CC[C@]12CCCCN1c1nc(-n3ccnc3-c3ccc(F)cc3F)ncc1N(C)C2=O` [Example 270, (R)-2-(2-(2,4-difluorophenyl)-1H-imidazol-1-yl)-6a-ethyl-5-methyl-7,8,9,10-tetrahydro-5H-pyrido[2,1-h]pteridin-6(6aH)-one], the results for the IC50 at PLK3, on PLK1 and on PLK2 were greater than 50 µM, greater than 50 µM and 10 to 50 µM, respectively.

`CC[C@@H]1C(=O)N(C)c2cnc(-n3ccnc3C)nc2N1C1CCCC1` [Example 27, (R)-8-cyclopentyl-7-ethyl-5-methyl-2-(2-methyl-1H-imidazol-1-yl)-7,8-dihydropteridin-6(5H)-one]: the half-inhibitory concentration (IC50) was greater than 50 µM on PLK3, 1 to 10 µM at PLK1 and less than 1 µM on PLK2.

With `CC[C@@]12CCCN1c1nc(N3CCN=C3c3ccccc3)ncc1N(C)C2=O` [Example 281, (S)-6a-ethyl-5-methyl-2-(2-phenyl-4,5-dihydro-1H-imidazol-1-yl)-6a,7,8,9-tetrahydropyrrolo[2,1-h]pteridin-6(5H)-one], the IC50 on PLK3 was 10 to 50 µM; at PLK1, greater than 50 µM; on PLK2, less than 1 µM.

`CC[C@@H]1C(=O)N(C)c2cnc(-c3ccncc3NS(=O)(=O)c3ccccc3)nc2N1C(C)C` [Example 120, (R)—N-(4-(7-ethyl-8-isopropyl-5-methyl-6-oxo-5,6,7,8-tetrahydropteridin-2-yl)pyridin-3-yl)benzenesulfonamide]: the values for the IC50 at PLK3, against PLK1 and at PLK2 were greater than 50 µM, 1 to 10 µM and 1 to 10 µM, respectively.

On to `CC[C@@H]1C(=O)N(C)c2cnc(-c3ccncc3NC(=O)c3ccccc3)nc2N1C1CCCC1` [Example 102, (R)—N-(4-(8-cyclopentyl-7-ethyl-5-methyl-6-oxo-5,6,7,8-tetrahydropteridin-2-yl)pyridin-3-yl)benzamide], for which the IC50 was 1 to 10 µM on PLK3, 1 to 10 µM against PLK1 and less than 1 µM at PLK2.

`[2H]C([2H])([2H])N1C(=O)C(C([2H])([2H])C([2H])([2H])[2H])N(C([2H])(C([2H])([2H])[2H])C([2H])([2H])[2H])c2nc(-n3ccnc3-c3cccc(OC(F)(F)F)c3)ncc21` (centres unmarked) [Example 160, 7-perdeuteroethyl-8-perdeuteroisopropyl-5-trideuteromethyl-2-(2-(3-(trifluoromethoxy)phenyl)-1H-imidazol-1-yl)-7,8-dihydropteridin-6(5H)-one]: the values for the IC50 at PLK3, against PLK1 and at PLK2 were 10 to 50 µM, 1 to 10 µM and less than 1 µM, respectively.

Regarding `CC[C@@H]1C(=O)N(C)c2cnc(-n3ccnc3-c3ccc(F)c(Cl)c3)nc2N1C(C)C` [Example 186, (R)-2-(2-(3-chloro-4-fluorophenyl)-1H-imidazol-1-yl)-7-ethyl-8-isopropyl-5-methyl-7,8-dihydropteridin-6(5H)-one], the IC50 was 1 to 10 µM on PLK3, 1 to 10 µM on PLK1 and less than 1 µM at PLK2.

For the compound `CCC12CCCCN1c1nc(-n3ccnc3-c3ccccc3)ncc1N(C)C2=O` (racemic) [Example 238, (+/−) 6a-ethyl-5-methyl-2-(2-phenyl-1H-imidazol-1-yl)-7,8,9,10-tetrahydro-5H-pyrido[2,1-h]pteridin-6(6aH)-one], the IC50 is 10 to 50 µM on PLK3, 1 to 10 µM against PLK1 and less than 1 µM on PLK2.

As for `[2H]C([2H])([2H])N1C(=O)C(C([2H])([2H])C([2H])([2H])[2H])N(C([2H])(C([2H])([2H])[2H])C([2H])([2H])[2H])c2nc(-n3ccnc3-c3ccc(OC(F)(F)F)cc3)ncc21` (centres unmarked) [Example 170, 7-perdeuteroethyl-8-perdeuteroisopropyl-5-trideuteromethyl-2-(2-(4-(trifluoromethoxy)phenyl)-1H-imidazol-1-yl)-7,8-dihydropteridin-6(5H)-one], the IC50 was greater than 50 µM on PLK3, 10 to 50 µM at PLK1 and less than 1 µM at PLK2.

`CC[C@@]12CCCN1c1nc(-c3nccnc3-c3ccccc3)ncc1N(C)C2=O` [Example 316, (S)-6a-ethyl-5-methyl-2-(3-phenylpyrazin-2-yl)-6a,7,8,9-tetrahydropyrrolo[2,1-h]pteridin-6(5H)-one]: the IC50 on PLK3 lay within 1 to 10 µM; against PLK1 it was 10 to 50 µM; on PLK2, 1 to 10 µM.

Consider `CC[C@@H]1C(=O)N(C)c2cnc(-n3ccnc3-n3ccccc3=O)nc2N1C1CCCC1` [Example 113, (R)-8-cyclopentyl-7-ethyl-5-methyl-2-(2-(2-oxopyridin-1(2H)-yl)-1H-imidazol-1-yl)-7,8-dihydropteridin-6(5H)-one], for which the IC50 on PLK3 is 1 to 10 µM; against PLK1, 1 to 10 µM; at PLK2, less than 1 µM.

Take `CC[C@@H]1C(=O)N(C)c2cnc(-n3ccnc3-c3ccc(F)cc3)nc2N1c1cccc(C#N)c1` [Example 358, (R)-3-(7-ethyl-2-(2-(4-fluorophenyl)-1H-imidazol-1-yl)-5-methyl-6-oxo-6,7-dihydropteridin-8(5H)-yl)benzonitrile]: the figures for the IC50 on PLK3, on PLK1 and at PLK2 were 1 to 10 µM, 1 to 10 µM and less than 1 µM, respectively. For the same compound, on PLK2, the “relative PLK2 activity of the enantiomers” value was “more active compound”.

On to `CCC1C(=O)N(C)c2cnc(-n3ccnc3)nc2N1c1cccc(-n2cccn2)c1` (centres unmarked) [Example 336, 8-(3-(1H-pyrazol-1-yl)phenyl)-7-ethyl-2-(1H-imidazol-1-yl)-5-methyl-7,8-dihydropteridin-6(5H)-one], for which the IC50 at PLK3 is greater than 50 µM; against PLK1, 10 to 50 µM; on PLK2, 10 to 50 µM.

Turning to `CC[C@@H]1CC[C@@]2(CC)C(=O)N(C)c3cnc(-n4ccnc4)nc3N12` [Example 334, (6aS,9R)-6a,9-diethyl-2-(1H-imidazol-1-yl)-5-methyl-6a,7,8,9-tetrahydropyrrolo[2,1-h]pteridin-6(5H)-one], the values for the half-inhibitory concentration (IC50) at PLK3, at PLK1 and at PLK2 were 10 to 50 µM, 1 to 10 µM and 1 to 10 µM, respectively.

On to `CC[C@@H]1C(=O)N(C)c2cnc(-c3sc(Br)nc3-c3ccc(F)cc3)nc2N1C(C)C` [Example 347, (R)-2-(2-bromo-4-(4-fluorophenyl)thiazol-5-yl)-7-ethyl-8-isopropyl-5-methyl-7,8-dihydropteridin-6(5H)-one], for which the IC50 was greater than 50 µM at PLK3, greater than 50 µM against PLK1 and less than 1 µM at PLK2.
